Values quoted from earlier work, collected in patent US11147800B2 (Race Oncology Ltd., priority 2013, dated 2021).
Structures can show the parent of a compound that is named as a salt.

How the values were obtained:
[1] = tested on: telomerase-expressing cells and ALT-positive cell lines
[2] = tested on: colon 26, Lewis lung, Ridgway osteosarcoma, B16, Lieberman plasma cell, P388 or L1210 cancer cells
[3] = preclinical
[4] = not given; remark: listed apart in the source
[5] = not given; remark: listed apart in the source
L1210 leukemia cells = conditions: typical of inhibition of DNA topoisomerase II
[6] = tested on: hepatic microsomal enzymes; conditions: in vitro
[7] = not given; remark: listed apart in the source
[8] = not given; remark: listed apart in the source
[9] = biological target: glycogen synthase kinase-3β (GSK-3β) (Homo sapiens, UniProt P49841)
Chain of glycogen synthase kinase-3β (GSK-3β) (P49841 whole entry, species assumed): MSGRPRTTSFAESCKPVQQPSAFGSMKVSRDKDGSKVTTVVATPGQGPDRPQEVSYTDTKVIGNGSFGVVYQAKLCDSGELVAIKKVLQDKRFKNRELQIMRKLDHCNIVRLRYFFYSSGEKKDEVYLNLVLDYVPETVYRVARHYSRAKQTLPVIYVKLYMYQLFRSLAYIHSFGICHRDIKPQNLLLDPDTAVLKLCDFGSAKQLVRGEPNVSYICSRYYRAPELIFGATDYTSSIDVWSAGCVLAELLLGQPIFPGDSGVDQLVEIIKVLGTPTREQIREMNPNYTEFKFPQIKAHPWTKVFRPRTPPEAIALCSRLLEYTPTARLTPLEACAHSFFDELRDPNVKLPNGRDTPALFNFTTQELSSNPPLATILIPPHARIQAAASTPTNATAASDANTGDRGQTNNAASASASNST

[10] = local injection
[11] = single dose study, the last study
[12] = single dose study, triphasic elimination, second study

**Q.** With `C(=N\NC1=NCCN1)/c1cccc2cc3c(/C=N/NC4=NCCN4)cccc3cc12` [Formula (III)] as the molecule, how does the “DNA damage response (γH2AX foci partially co-localized at the telomere)” value [1] read?
**A.** Its value is “consistently provokes a DNA damage response”.

**Q.** With `C(=NNC1=NCCN1)c1c2ccccc2c(C=NNC2=NCCN2)c2ccccc12` [bisantrene, 9,10-anthracenedicarboxaldehyde bis[(4,5-dihydro-1H-imidazol-2-yl)hydrazine] dihydrochloride] as the molecule, how does the “minimal effective in vivo dose for macrophage activation” value (macrophages) read?
**A.** The value was 25 mg/kg.

**Q.** What about the “antitumor activity in murine tumor models” value ([2]; P-388 leukemia and B-16 melanoma) of the same molecule?
**A.** The value was “antitumor activity”.

**Q.** What about the “activity in cancer models, parenteral” value ([2]; i.v., i.p. or s.c., colon 26, Lewis lung, Ridgway osteosarcoma, B16, Lieberman plasma cell, P388 or L1210) of the same molecule?
**A.** The value was “effective”.

**Q.** And the “activity in cancer models, oral” value ([2]; orally)?
**A.** Its value is “inactive”.

**Q.** What about the Brain levels [3] of the same molecule?
**A.** The Brain levels was “extremely low”.

**Q.** What about the “tissues with the highest concentration (in descending order)” value [3] of the same molecule?
**A.** The value was “kidney, liver, gallbladder, spleen, lung, and heart”.

**Q.** What about the “activity in metastatic breast cancer” value (Phase II, heavily pretreated patients) of the same molecule?
**A.** The value was “active”.

**Q.** And the “activity in phase I clinical trials” value (hepatocellular cancer and hypernephroma (one patient each), lymphoma, myeloma, melanoma, renal cancer, bladder and lung tumors)?
**A.** The value was “showed activity”.

**Q.** What about the “activity in refractory malignant melanoma” value (phase II) of the same molecule?
**A.** The value was “inactive”.

**Q.** What about the “activity in human colon cancer” value (tested in vitro or in vivo (phase II advanced colorectal cancer)) of the same molecule?
**A.** Its value is “inactive”.

**Q.** And the “urinary excretion of the dose” value ([4]; 72-hr infusion study, in 24 hr)?
**A.** The value was 4.6%.

**Q.** What about the “triphasic elimination, first phase (given as clearances)” value [4, 11] of the same molecule?
**A.** The value was 0.1 h.

**Q.** And the “triphasic elimination, second phase (given as clearances)” value [4, 11]?
**A.** The value was 1.9 h.

**Q.** And the “triphasic elimination, third phase (given as clearances)” value [4, 11]?
**A.** The value was 43.9 h.

**Q.** And the t½α [4, 12]?
**A.** The t½α was 3 min.

**Q.** What about the t½β [4, 12] of the same molecule?
**A.** Its t½β is 1 h.

**Q.** And the t½γ [4, 12]?
**A.** The t½γ was 8 h.

**Q.** What about the “cross resistance with adriamycin and mitoxantrone” value (Human tumor cells) of the same molecule?
**A.** Its value is “lack of cross resistance”.

**Q.** And the “sensitivity in in vitro colony-forming assays” value (Human tumor cells; breast, ovarian, renal, small cell and non-small cell lung, lymphoma, AML, melanoma, gastric, adrenal, head and neck cancer)?
**A.** The value was “sensitive”.

**Q.** And the “local tissue toxicity if extravasated” value ([5]; human, in vivo)?
**A.** Its value is “potent vesicant”.

**Q.** What about the patients reporting malaise ([5]; human, in vivo) of the same molecule?
**A.** Its patients reporting malaise is “up to one-half of patients”.

**Q.** What about the “cardiotoxicity compared with mitoxantrone or doxorubicin” value ([5]; phase III trial) of the same molecule?
**A.** The value was “less cardiotoxic”.

**Q.** And the DNA strand breaks (L1210 leukemia cells)?
**A.** Its DNA strand breaks is “induce protein-associated DNA strand breaks”.

**Q.** And the “substrate for hepatic microsomal enzymes” value [6]?
**A.** Its value is “substrate”.

**Q.** What about the “major dose-limiting toxic effect” value ([7]; in vivo) of the same molecule?
**A.** The value was “leukopenia”.

**Q.** What about the DLT ([7]; phase I doses between 190-430 mg/m^2 q3w) of the same molecule?
**A.** Its DLT is “neutropenia”.

**Q.** What about the platelet aggregation (Human Platelets) of the same molecule?
**A.** The platelet aggregation was “inhibit platelet aggregation”.

**Q.** And the cardiotoxicity in animals ([8]; animals)?
**A.** The cardiotoxicity in animals was “not cardiotoxic”.

**Q.** What about the toxic findings ([8]; dogs and monkeys, high doses) of the same molecule?
**A.** The toxic findings was “leukopenia, anorexia, diarrhea, injection site necrosis, enterocolitis, muscle degeneration, and pulmonary edema”.

**Q.** With `CN1C(=O)/C(=C2/C(=O)Nc3ccccc32)c2ccccc21` [meisoindigo] as the molecule, how does the “concentration for inhibition of GSK-3β” value [9] read?
**A.** Its value is 5 to 50 nM.

**Q.** For `O=C([O-])O.[Na+]` [sodium bicarbonate], which bisantrene extravasation necrosis [10] is on record?
**A.** Its bisantrene extravasation necrosis is “blocked”.
